The target of the test is T1, human recombinant serotonin (5-Hydroxytryptamine) 5-HT2A receptor (Homo sapiens, UniProt P28223).
T1 construct: expressed in transfected cells; host or cells: Chinese hamster ovary (CHO-K1) cells
Nature of the test: Serotonin 5-HT2A radioligand binding assay ([3H]Ketanserin). To be noted: 0.5 nM [3H]Ketanserin, read-out: Percent Inhibition of ligand binding, Serotonin (1 μM) 5-HT2A. How it is done:
Compounds of the invention were incubated with 0.5 nM [^3H]Ketanserin for 60 min at 25° C. Non-specific binding was estimated in the presence of 1 μM Mianserin. Receptor proteins were filtered and washed, the filters were then counted to determine [^3H]Ketanserin specifically bound. Compounds were screened at 1 μM or lower, using 1% DMSO as vehicle. Biochemical assay results are presented as the percent inhibition of specific binding in Table 4.

T1 sequence (P28223 whole entry): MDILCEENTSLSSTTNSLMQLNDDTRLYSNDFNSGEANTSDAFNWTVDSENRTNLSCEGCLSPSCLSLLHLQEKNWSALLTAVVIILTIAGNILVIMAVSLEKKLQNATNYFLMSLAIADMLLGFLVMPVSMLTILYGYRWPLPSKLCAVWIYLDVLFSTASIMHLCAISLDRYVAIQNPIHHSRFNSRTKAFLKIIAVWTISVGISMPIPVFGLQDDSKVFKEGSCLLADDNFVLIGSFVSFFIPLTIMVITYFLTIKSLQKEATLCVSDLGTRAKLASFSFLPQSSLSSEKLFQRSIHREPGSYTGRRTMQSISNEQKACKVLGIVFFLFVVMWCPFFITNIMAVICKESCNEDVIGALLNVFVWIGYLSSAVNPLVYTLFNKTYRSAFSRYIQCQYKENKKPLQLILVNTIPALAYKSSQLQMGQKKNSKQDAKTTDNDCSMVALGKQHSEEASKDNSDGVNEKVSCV

`Cc1ccc2c(c1)c1c(n2CC(O)(c2ccccc2)c2ccc(F)cc2)CCN(C)C1` (stereo not shown) [Compound 1, 2-(2,8-dimethyl-3,4-dihydro-1H-pyrido[4,3-b]indol-5(2H)-yl)-1-(4-fluorophenyl)-1-phenylethanol]: the inhibition at 1 µM came out at 97%.

The values are drawn from US8927571B2, “Pyrido[4,3-B]indoles and methods of use” (Medivation Technologies, Inc., priority 2009, dated 2015).
